Consider 17 molecules from patent US9296722B2, “Azolyl urea compounds and methods of use thereof” (Ambit Biosciences Corporation, priority 2010, dated 2016).

As usually defined, the pKd is −log10 of the Kd, conventionally taken in molar units.

Each structure is given as a SMILES string. pIC50, pKd: −log10 of the molar value.

For one assay, the system named is M-NFS-60 cells. The assay can be described thus: M-NFS-60 cell proliferation assay. Also on record: CSF1R Cell Proliferation (M-NFS-60) IC50 (nM): scale not given here. To be noted: 72 hours incubation, Alamar Blue, M-CSF-dependent cells; for pIC50: Mus musculus, read-out: CSF1R Cell Proliferation (M-NFS-60) IC50. It is filed as cell-based, mouse. The method, then: In certain embodiments, the compounds disclosed herein are tested in an M-NFS-60 cell proliferation assay to determine their cellular potency against CSF-1R. M-NFS-60s are mouse monocytic cells that depend on the binding of the ligand M-CSF to its receptor, CSF-1R, to proliferate Inhibition of CSF-1R kinase activity will cause reduced growth and/or cell death. This assay assesses the potency of compounds as CSF-1R inhibitors by measuring the reduction of Alamar Blue reagent by viable cells. An exemplary assay is described in the Examples section.
The compounds disclosed herein were tested in an M-NFS-60 cell proliferation assay to determine their cellular potency against CSF1R. M-NFS-60s are mouse monocytic cells that depend on the binding of the ligand M-CSF to its receptor, CSF1R, to proliferate Inhibition of CSF1R kinase activity will cause reduced growth and/or cell death. This assay assesses the potency of compounds as CSF1R inhibitors by measuring the reduction of Alamar Blue reagent by viable cells.
On day one of the experiment, M-NFS-60 cells were maintained in RPMI complete medium (Omega Scientific) plus 10% FBS supplemented with 20 ng/mL of M-CSF (R&D Systems). 96-well TC-treated, flat bottom plates were seeded at 10,000 cell/well at a volume of 100 μL per well. The cells were cultured overnight at 37° C. under 5% CO2.
On day two, compounds were added to the cells at 9 different concentrations, with half-log intervals alongside a control reference compound serving as a positive control. Final DMSO concentration was kept at 0.5% for a final volume of 200 μL. The compounds were allowed to incubate with the cells for 72 hours at 37° C. under 5% CO2.
On day five of the experiment, 40 μl of Alamar Blue reagent was added to each well and allowed to incubate for 3 hours. Alamar Blue fluorescence was read using SoftMax Pro software at 560 nm (excitation) and 590 nm (emission). IC50s were generated as an average of duplicates and represents the concentration of test compound that achieves 50% inhibition of cellular proliferation compared to control.

Another assay deals with T1, CSF1R (human) (Homo sapiens, UniProt P07333).
T1 construct: made in house; host or cells: T7 phage display or HEK-293 cells (alternatives, not resolved per kinase)
T1 sequence (P07333 20-972): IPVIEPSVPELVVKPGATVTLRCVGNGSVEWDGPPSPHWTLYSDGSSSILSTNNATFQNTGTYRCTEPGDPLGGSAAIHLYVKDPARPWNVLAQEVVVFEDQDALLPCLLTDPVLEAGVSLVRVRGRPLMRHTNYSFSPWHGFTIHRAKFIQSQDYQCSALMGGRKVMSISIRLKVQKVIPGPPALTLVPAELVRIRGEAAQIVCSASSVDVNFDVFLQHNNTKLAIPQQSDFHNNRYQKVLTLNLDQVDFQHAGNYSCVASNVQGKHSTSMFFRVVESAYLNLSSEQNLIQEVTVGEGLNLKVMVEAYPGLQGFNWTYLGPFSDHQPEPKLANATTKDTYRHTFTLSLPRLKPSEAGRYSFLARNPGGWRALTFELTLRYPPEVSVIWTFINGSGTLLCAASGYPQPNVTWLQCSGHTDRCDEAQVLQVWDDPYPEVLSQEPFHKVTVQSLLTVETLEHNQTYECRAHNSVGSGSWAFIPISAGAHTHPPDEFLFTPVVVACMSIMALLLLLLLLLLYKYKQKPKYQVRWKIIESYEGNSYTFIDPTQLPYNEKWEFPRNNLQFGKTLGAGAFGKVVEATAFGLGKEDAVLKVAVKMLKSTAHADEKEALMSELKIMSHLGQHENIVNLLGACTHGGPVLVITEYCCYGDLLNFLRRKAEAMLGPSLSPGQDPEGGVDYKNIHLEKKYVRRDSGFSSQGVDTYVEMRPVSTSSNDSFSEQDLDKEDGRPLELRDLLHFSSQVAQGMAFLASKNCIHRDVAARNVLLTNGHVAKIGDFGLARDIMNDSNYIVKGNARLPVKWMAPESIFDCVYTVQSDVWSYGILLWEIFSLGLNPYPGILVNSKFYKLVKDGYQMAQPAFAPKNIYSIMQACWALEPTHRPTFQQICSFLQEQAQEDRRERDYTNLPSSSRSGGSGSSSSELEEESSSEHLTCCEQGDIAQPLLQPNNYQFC
Kind of assay: Competition binding assay, CSF1R (human) Kd. The method, then:
The liganded beads were blocked with excess biotin and washed with blocking buffer (SeaBlock (Pierce), 1% BSA, 0.05% Tween 20, 1 mM DTT) to remove unbound ligand and to reduce non-specific binding. […] Test compounds were prepared as 100× stocks in DMSO and diluted into the aqueous environment. Kds were determined using an eleven point threefold serial dilutions. DMSO or control compounds were was added to control assays lacking a test compound. […] The kinase concentration in the eluates was measured by quantitative PCR.

Assay [1] addresses kinase panel containing either 359 or 386 distinct kinases. The assay can be described thus: Competition binding assay, selectivity score (S10) against a panel of kinases. To be noted: compounds at 10 μM; fraction of kinases with percent of control less than 10. Here is the method:
Competition binding assays used herein were developed, validated and performed as described in Fabian et al., Nature Biotechnology 2005, 23, 329-336. Kinases were produced as fusions to T7 phage (See, Fabian et al. or WO04/015142) or alternatively, the kinases were expressed in HEK-293 cells and subsequently tagged with DNA for PCR detection (See, WO08/005,310). […] The liganded beads were blocked with excess biotin and washed with blocking buffer (SeaBlock (Pierce), 1% BSA, 0.05% Tween 20, 1 mM DTT) to remove unbound ligand and to reduce non-specific binding. […] Test compounds were prepared as 100× stocks in DMSO and diluted into the aqueous environment. Kds were determined using an eleven point threefold serial dilutions. DMSO or control compounds were was added to control assays lacking a test compound. Primary screen assays were performed in polypropylene 384-well plates in a final volume of 20-40 μL, while Kd determinations were performed in polystyrene 96-well plates in a final volume of […]. […] The kinase concentration in the eluates was measured by quantitative PCR.
A selectivity score (S10) is a quantitative measure of selectivity of a compound against a panel of kinases. An S10 was calculated for a compound by dividing the number of kinases found to have a percent of control (DMSO) less than 10 by the total number of distinct kinases tested (excluding mutant variants). Percent of control (POC) is calculated by subtracting the signal of the control compound
(POC=0) from the signal of the test compound and dividing the outcome by the signal of DMSO (POC=100) minus the signal of the control compound. For the compounds disclosed herein, S10 scores were obtained by testing the compounds at 10 μM concentration in a kinase panel containing either 359 or 386 distinct kinases.

For the molecule `CC(C)N1CC(Oc2ccc(C(=O)Nc3ccc(NC(=O)Nc4cc(C(C)(C)C)on4)cc3)nc2)C1`, in the assay on M-NFS-60 cells, the pIC50 is not below 7.00. At CSF1R (human), this molecule gave a pKd of more than 8.52. The “Kinase Specificity (S10)” value in assay [1] is listed as “B (0.03 < B ≦ 0.05)”.

With `CC(C)(C)c1cc(NC(=O)Nc2ccc(NC(=O)c3ccc(OC4CN(C5COC5)C4)cn3)cc2)no1`, the pIC50 in the assay on M-NFS-60 cells is not below 7.00. The pKd on CSF1R (human) is more than 8.52. Moreover, the “Kinase Specificity (S10)” value in assay [1] is given as “C (C > 0.05)”.

As to `CC(C)N1CCC(Oc2ccc(C(=O)Nc3ccc(NC(=O)Nc4cc(C(C)(C)C)on4)cc3)nc2)C1` (stereo not drawn), the pIC50 in the assay with M-NFS-60 cells was not below 7.00. At CSF1R (human), this molecule showed a pKd of more than 8.52. Besides, the “Kinase Specificity (S10)” value in assay [1] was “B (0.03 < B ≦ 0.05)”.

`CCN1CCC(Oc2ccc(C(=O)Nc3ccc(NC(=O)Nc4cc(C(C)(C)C)on4)cc3)nc2)C1` (stereo not drawn): the pIC50 in the assay with M-NFS-60 cells was not below 7.00. This molecule also gave a pKd on CSF1R (human) of more than 8.52. In addition, in assay [1], the “Kinase Specificity (S10)” value was “B (0.03 < B ≦ 0.05)”.

`CC(C)(C)c1cc(NC(=O)Nc2ccc(NC(=O)c3ccc(OC4CCN(C5COC5)C4)cn3)cc2)no1` (stereo not drawn): in the assay on M-NFS-60 cells, the pIC50 was not below 7.00. On CSF1R (human), this molecule had a pKd of more than 8.52. Also, the “Kinase Specificity (S10)” value in assay [1] is on record as “B (0.03 < B ≦ 0.05)”.

As for `CCN1CCC(Oc2ccc(C(=O)Nc3ccc(NC(=O)Nc4cc(C(C)(C)F)no4)cc3)nc2)CC1`, in the assay with M-NFS-60 cells, the “CSF1R Cell Proliferation (M-NFS-60) IC50 (nM)” value is recorded as “A/B”. Besides, the pKd on CSF1R (human) is more than 8.52. The “Kinase Specificity (S10)” value in assay [1] was “A (A ≦ 0.03)”.

With `CC(C)N1CCC(Oc2ccc(C(=O)Nc3ccc(N(C)C(=O)Nc4cc(C(C)(C)C)on4)cc3)nc2)C1` (stereo not drawn), in the assay with M-NFS-60 cells, the pIC50 was 6.60 to 7.00. On CSF1R (human), the pKd is more than 8.52. Moreover, the “Kinase Specificity (S10)” value in assay [1] was “C (C > 0.05)”.

As to `CC(C)(C)c1cc(NC(=O)Nc2ccc(NC(=O)c3ccc(OC4CCN(CCS(C)(=O)=O)C4)cn3)cc2)no1` (stereo not drawn), in the assay with M-NFS-60 cells, the pIC50 was not below 7.00. The molecule further gave a pKd at CSF1R (human) of more than 8.52. In addition, the “Kinase Specificity (S10)” value in assay [1] is “C (C > 0.05)”.

In the case of `CN(C)C(=O)CN1CCC(Oc2ccc(C(=O)Nc3ccc(NC(=O)Nc4cc(C(C)(C)C)on4)cc3)nc2)C1` (stereo not drawn), the pIC50 in the assay with M-NFS-60 cells was not below 7.00. This molecule also showed a pKd at CSF1R (human) of more than 8.52. Moreover, the “Kinase Specificity (S10)” value in assay [1] is “B (0.03 < B ≦ 0.05)”.

As for `CCN1CCC(Oc2ccc(C(=O)Nc3ccc(NC(=O)Nc4cc(C(C)(C)C(F)(F)F)on4)cc3)nc2)CC1`, the pIC50 in the assay on M-NFS-60 cells was not below 7.00. This molecule also showed a pKd at CSF1R (human) of more than 8.52. Further, the “Kinase Specificity (S10)” value in assay [1] is “C (C > 0.05)”.

Turning to `CC(C)N1CCC(Oc2ccc(C(=O)Nc3ccc(NC(=O)Nc4cc(C(C)(C)C(F)(F)F)on4)cc3)nc2)CC1`, the pIC50 in the assay with M-NFS-60 cells is not below 7.00. This molecule showed a pKd at CSF1R (human) of more than 8.52. In addition, in assay [1], the “Kinase Specificity (S10)” value was “C (C > 0.05)”.

Turning to `CC(C)N1CC[C@@H](Oc2ccc(C(=O)Nc3ccc(NC(=O)Nc4cc(C(C)(C)C)on4)cc3)nc2)C1`, the pIC50 in the assay on M-NFS-60 cells is not below 7.00. At CSF1R (human), the pKd is more than 8.52. Besides, the “Kinase Specificity (S10)” value in assay [1] is “C (C > 0.05)”.

On to `Cc1cc(NC(=O)Nc2cc(C(C)(C)C)on2)ccc1NC(=O)c1ccc(OC2CC(C)(C)N(C)C(C)(C)C2)cn1`, for which the pIC50 with M-NFS-60 cells is less than 6.00. This molecule also showed a pKd on CSF1R (human) of 8.00 to 8.52. Moreover, in assay [1], the “Kinase Specificity (S10)” value is on record as “C (C > 0.05)”.

In the case of `Cc1cc(NC(=O)c2ccc(OC3CC(C)(C)N(C)C(C)(C)C3)cn2)ccc1NC(=O)Nc1cc(C(C)(C)C)on1`, the pIC50 in the assay with M-NFS-60 cells is 6.60 to 7.00. The molecule also had a pKd at CSF1R (human) of more than 8.52. Also, the “Kinase Specificity (S10)” value in assay [1] is listed as “B (0.03 < B ≦ 0.05)”.

As to `CC(C)N1CC[C@H](Oc2ccc(C(=O)Nc3ccc(NC(=O)Nc4cc(C(C)(C)C)on4)cc3)nc2)C1`, the pIC50 in the assay on M-NFS-60 cells was not below 7.00. The pKd at CSF1R (human) was more than 8.52. The “Kinase Specificity (S10)” value in assay [1] is given as “C (C > 0.05)”.

In the case of `CN1C2CCC1CC(Oc1ccc(C(=O)Nc3ccc(NC(=O)Nc4cc(C(C)(C)C)on4)cc3)nc1)C2` (stereo not drawn), in the assay on M-NFS-60 cells, the pIC50 is not below 7.00. This molecule showed a pKd at CSF1R (human) of more than 8.52. For the same molecule, the “Kinase Specificity (S10)” value in assay [1] is “C (C > 0.05)”.

Turning to `COc1cc(NC(=O)c2ccc(OC3CC(C)(C)N(C)C(C)(C)C3)cn2)ccc1NC(=O)Nc1cc(C(C)(C)C)on1`, the pIC50 in the assay with M-NFS-60 cells is less than 6.00. The molecule also had a pKd on CSF1R (human) of 8.00 to 8.52. Further, the “Kinase Specificity (S10)” value in assay [1] is “A (A ≦ 0.03)”.
